# Source: the supplement of paper PMC11451515
# Test system: NOMO1
# Experiment: cell viability relative to DMSO control; higher = less cytotoxic
# Details: 48 h
# In short: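 Viability, reported as a per-plate percentage of DMSO wells with cell-free wells as background, came from CellTiter-Glo One luminescence. Reading took place after 48 h at 37°C. Before that, NOMO1 or SEM (500 cells/well) or P12-Ichikawa (1000 cells/well) leukemia cells, adapted for at least four passages in each medium, were seeded in 1536-well plates (5 μl) and pin-dosed with library compounds in DMSO, 47 μM to 0.79 nM over 11 threefold points.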
# [1] = HPLM + 10% dialyzed FBS, 0.000781 µM
# [2] = HPLM + 10% dialyzed FBS, 0.00234 µM
# [3] = HPLM + 10% dialyzed FBS, 0.00702 µM
# [4] = HPLM + 10% dialyzed FBS, 0.0211 µM
# [5] = HPLM + 10% dialyzed FBS, 0.0632 µM
# [6] = HPLM + 10% dialyzed FBS, 0.19 µM
# [7] = HPLM + 10% dialyzed FBS, 0.569 µM
# [8] = HPLM + 10% dialyzed FBS, 1.71 µM
# [9] = HPLM + 10% dialyzed FBS, 5.12 µM
# [10] = HPLM + 10% dialyzed FBS, 15.4 µM
# [11] = HPLM + 10% dialyzed FBS, 46.1 µM
# [12] = RPMI 5 mM glucose + 10% FBS, 0.000781 µM
# [13] = RPMI 5 mM glucose + 10% FBS, 0.00234 µM
# [14] = RPMI 5 mM glucose + 10% FBS, 0.00702 µM
# [15] = RPMI 5 mM glucose + 10% FBS, 0.0211 µM
# [16] = RPMI 5 mM glucose + 10% FBS, 0.0632 µM
# [17] = RPMI 5 mM glucose + 10% FBS, 0.19 µM
# [18] = RPMI 5 mM glucose + 10% FBS, 0.569 µM
# [19] = RPMI 5 mM glucose + 10% FBS, 1.71 µM
# [20] = RPMI 5 mM glucose + 10% FBS, 5.12 µM
# [21] = RPMI 5 mM glucose + 10% FBS, 15.4 µM
# [22] = RPMI 5 mM glucose + 10% FBS, 46.1 µM
# [23] = RPMI 5 mM glucose + 10% dialyzed FBS, 0.000781 µM
# [24] = RPMI 5 mM glucose + 10% dialyzed FBS, 0.00234 µM
# [25] = RPMI 5 mM glucose + 10% dialyzed FBS, 0.00702 µM
# [26] = RPMI 5 mM glucose + 10% dialyzed FBS, 0.0211 µM
# [27] = RPMI 5 mM glucose + 10% dialyzed FBS, 0.0632 µM
# [28] = RPMI 5 mM glucose + 10% dialyzed FBS, 0.19 µM
# [29] = RPMI 5 mM glucose + 10% dialyzed FBS, 0.569 µM
# [30] = RPMI 5 mM glucose + 10% dialyzed FBS, 1.71 µM
# [31] = RPMI 5 mM glucose + 10% dialyzed FBS, 5.12 µM
# [32] = RPMI 5 mM glucose + 10% dialyzed FBS, 15.4 µM
# [33] = RPMI 5 mM glucose + 10% dialyzed FBS, 46.1 µM
Structure (SMILES),cell viability [1] [%],cell viability [2] [%],cell viability [3] [%],cell viability [4] [%],cell viability [5] [%],cell viability [6] [%],cell viability [7] [%],cell viability [8] [%],cell viability [9] [%],cell viability [10] [%],cell viability [11] [%],cell viability [12] [%],cell viability [13] [%],cell viability [14] [%],cell viability [15] [%],cell viability [16] [%],cell viability [17] [%],cell viability [18] [%],cell viability [19] [%],cell viability [20] [%],cell viability [21] [%],cell viability [22] [%],cell viability [23] [%],cell viability [24] [%],cell viability [25] [%],cell viability [26] [%],cell viability [27] [%],cell viability [28] [%],cell viability [29] [%],cell viability [30] [%],cell viability [31] [%],cell viability [32] [%],cell viability [33] [%]
C#CCC(Cc1cnc2nc(N)nc(N)c2n1)c1ccc(C(=O)N[C@@H](CCC(=O)O)C(=O)O)cc1 (some centres not stated),124,114,130,128,93.6,52,45.8,49.4,45.1,54.7,49.7,127,122,122,123,114,97.7,73.9,77.1,78.4,72.4,74.9,–,–,–,–,–,–,–,–,–,–,–
Cc1noc(N[S+](=O)([O-])c2ccc(N)cc2)c1C,92.3,91.3,109,97.9,95.6,101,109,114,96,92,104,98,92.7,88.6,89.5,108,102,113,111,106,91.6,104,92.3,90.7,71.5,92.6,89,89.7,92.6,96.2,90.3,94.6,81.4
CC1(C)CCC(C)(C)c2cc(NC(=O)c3ccc(C(=O)O)cc3)ccc21,91.4,91,98.5,111,101,100,98.1,109,79.9,92.9,60.7,85.7,90.6,89.8,97.5,95.4,97.3,99.8,101,98.5,94.4,76.1,99.8,91.9,91.3,89.8,97.7,90.2,95.3,93,88.2,84.5,75.9
COC(=O)[C@H](Cc1ccccc1)NC(=O)[C@@H](N)CC(=O)O,110,124,116,112,128,115,113,112,93.6,96.1,94.9,108,121,125,122,110,126,115,107,112,105,108,126,117,120,112,112,125,106,122,70.4,116,108
COc1cc2c(cc1OC)CN(CCc1ccc(NC(=O)c3cccc4c(=O)c5cccc(OC)c5[nH]c34)cc1)CC2,97.2,96.8,114,121,122,121,109,45,29.8,16.8,11.3,123,112,127,118,119,116,122,112,62.8,23.7,14.1,112,114,127,113,130,130,133,133,52.3,35.2,24.2
CCc1nc(N)nc(N)c1-c1ccc(Cl)cc1,78.8,118,93.3,92.8,105,108,96.1,47.7,48,44.6,38.7,81.1,99.5,84.8,83.7,86.1,86.4,90.6,90.5,89.9,89.1,89.6,84,94.3,90.3,100,106,104,96.8,104,90.2,56.3,35.3
CC1(C)[C@@H](O)CC[C@@]2(C)[C@H]1CC[C@]3(C)[C@@H]2C(=O)\C=C/4[C@@H]5C[C@](C)(CC[C@]5(C)CC[C@@]34C)C(O)=O,102,113,120,127,116,113,118,118,116,124,112,110,99.1,110,116,95.7,103,102,95,98.1,93.9,86.8,104,108,117,115,115,103,116,117,92,97.7,97.9
CC(=O)OCC(=O)[C@@]1(O)CC[C@H]2[C@@H]3CCC/4=C/C(=O)/C=C\[C@]4(C)[C@H]3[C@@H](O)C[C@]12C,–,–,–,–,–,–,–,–,–,–,–,131,119,121,119,114,119,120,112,119,106,115,–,–,–,–,–,–,–,–,–,–,–
CN(C)CCc1c[nH]c2ccc(Cn3cncn3)cc12,93.7,103,105,102,115,77.6,86.2,18.3,9.15,6.34,3.57,84.7,91.7,89.8,87.1,91.5,65.3,82.4,17.4,7.32,5.18,3.92,94.9,93.5,98.1,106,92.8,78.8,86.1,32,10.7,5.4,4.44
COc1cccc(OC)c1-c1cc(C(=O)NC2(C(=O)O)C3CC4CC(C3)CC2C4)nn1-c1ccnc2cc(Cl)ccc12 (configuration not stated),129,111,125,135,119,123,102,118,116,111,98.9,102,99.6,97.9,109,99.7,100,104,97.3,104,107,90.8,104,116,108,109,113,104,101,95.2,108,91,105
OC1CCC(CC1)N2\C=N/C3=C(C2=N)C(=C([N]3CC4=CC=CC=C4)C5=CC=CC=C5)C6=CC=CC=C6 (configuration not stated),115,133,121,144,142,130,130,93.8,81,74.9,9.01,–,–,–,–,–,–,–,–,–,–,–,–,–,–,–,–,–,–,–,–,–,–
C=C1CCC2[C@](C)(CO)C(O)CC[C@]2(C)C1C/C=C1/C(=O)OCC1O (some centres not stated),–,–,–,–,–,–,–,–,–,–,–,111,109,115,101,114,113,99.3,105,97.5,104,98.4,121,104,114,110,118,107,105,109,95.5,101,96.9
CCC(=O)NC[C@H](Cc1ccc(OCCc2nc(-c3ccccc3)oc2C)cc1)N/C(C)=C\C(=O)c1ccc(C(F)(F)F)cc1,98.9,104,101,122,114,130,96.3,104,103,54.3,27.1,102,114,109,99.6,106,112,101,109,113,62.4,19.2,97.9,113,102,115,106,117,107,107,90.8,105,43.7
Cc1cccc(-c2[nH]c(C(C)(C)C)nc2-c2ccc3nccnc3c2)n1,113,135,110,117,111,133,123,128,112,114,47,133,121,117,124,123,98.2,124,106,106,114,96.6,119,112,122,108,113,119,120,118,112,98.2,51.4
CCN(CC)CCCC(C)Nc1ccnc2cc(Cl)ccc12 (configuration not stated),112,100,124,115,120,103,104,69.7,74,31.6,31.5,103,112,99.2,102,117,108,110,92.8,99.7,21.1,18,124,120,118,134,120,121,120,111,107,26.9,26.5
CC(O)(C[S+](=O)([O-])c1ccc(F)cc1)C(=O)Nc1ccc(C#N)c(C(F)(F)F)c1 (configuration not stated),84.9,85.7,98.6,92.6,96.8,97,112,94.2,94.8,87.5,48,86.5,93.4,96.5,93.3,85.5,85.8,91.6,93.3,92.3,86.1,50.7,75.9,91.7,101,95.3,107,109,105,82.5,86.6,79.4,57
